The values that follow come from article PMC4683533, “Discovery of novel INK4C small-molecule inhibitors to promote human and murine hematopoietic stem cell ex vivo expansion” (Scientific Reports, 2015).

Entries after “also recorded” stand apart in the source; their conditions may differ.

One data set concerns HSCs (CD34−LKS cells). As to the kind of experiment: single hematopoietic stem cell in vitro culture (nmEM colony) assay. It is filed as cell-based, mouse. To be noted: 12.5 nM, 14-day treatment. How it is done: We biologically assessed the 22 putative p18SMI compounds for their ability to maintain HSCs stem cell characteristics, to be specific self-renewal and multi-lineage differentiation, using single cell cultures. […] Thus, we employed single HSC culture to assess p18SMI compounds’ effect upon HSCs. CD34^−LKS cells from C57BL/6 mice were individually deposited into a 96-well plate (one cell/well). The single cell was cultured for 14 days in 100 μL of serum-free medium (Gibco) containing 100 ng/mL of mouse stem cell factor (SCF), 10 ng/mL of mouse interleukin-3 (IL-3), 25 ng/mL of human thrombopoietin (TPO), 2 U/mL of human erythropoietin (EPO) and differing concentrations of the p18SMI compound. Cells were cultured 14 days for in vitro colony formation and colonies were then cytospined and analyzed by flow cytometry to test the subpopulation of cultured cells. Neutrophils (n), macrophages (m), erythroblasts (E) or megakaryocytes (M) were identified by the cell marker of Gr-1, Mac-1, Ter-119 and CD41 using flow cytometry. The wells from each group that generated all lineages (nmEM) were counted and the ratio to the control group (DMSO) was calculated.
Single CD34^-LKS cells from C57BL/6 mice were individually deposited into each well of a 96-well plate along with 100 μL of serum free medium (Gibco) containing 100 ng/mL of mouse SCF, 10 ng/mL of mouse IL-3, 25 ng/mL of human TPO, 2 U/mL of human EPO and p18SMI compounds (different dilutions). Cells were cultured in a 37 °C, 5% CO2 incubator for 14 days for ex vivo colony formation. Colonies were then cytospined and analyzed using flow cytometry. Neutrophils (n), macrophages (m), erythroblasts (E) or megakaryocytes (M) were identified based on their cell surface maker, Gr-1, Mac-1, Ter119 and CD41. Cells were measured on an FACS analyzer (FACSArray, BD Biosciences). […] The wells from each group that generated all lineages (nmEM) were counted. The ratio of p18SMI compound treatment group to the control group (DMSO-treated) was calculated and fitted to a curve to calculate the ED50 value using GraphPad Prism v6.0.

Data set [1] has as its system LT-repopulating HSCs (CD34-LKS cells). Nature of the data set: competitive bone marrow transplantation (cBMT) assay. Type of data set: in vivo, mouse. The protocol:
Figure 3 Treatment of c-Kit-enriched murine BM cells with p18SMI compounds enhances HSC expansion. (A) The average number of total cells, HSPCs (Lin^−Sca1^+) and long term (LT)-HSCs (Lin^-Sca1^+CD48^−CD150^+) were analyzed by flow cytometry. (B) Single CD34^−LKS cell were deposited into each well of a 96-well plate, along with differentiation medium plus different concentrations of p18SMI compounds to show the dose-response effect of p18SMI compounds. (C) CAFC-LDA assay of cells treated with XIE18-6, compound 40 and DMSO to reveal the frequency of primitive HSCs. Above data (A–C) is mean ± SEM for all experiments of two or more and were performed in duplicate or triplicate. (D) Experimental design for transplantation (n = 10). CD34^-LKS cells were sorted into 96-well plates at 50 cells/well and cultured for 3 days with cytokine plus 20 μM of compounds or DMSO. Cells from each well were mixed with 2 × 10^6 freshly isolated bone marrow MNCs and co-transplanted by tail-vein injection into lethally irradiated CD45.2 recipient mice. 16 weeks after transplantation, bone marrow MNCs were stained to determine the engraftment level of donor cells. Bone marrow MNCs were also stained for lineage analysis. Multi-lineage differentiation was examined by flow cytometry. GM, T and B indicate lineages for myeloid, T and B cells, respectively. (E,F) The engraftment levels at 16 weeks after primary transplantation, and multi-lineage differentiation profile. Data is mean ± SEM for all experiments (***p < 0.001, **p < 0.01). TEXT PRINTED IN THE PICTURE: (E) #40: Engrafment%: *** 5.93X | (E) XIE18-6: Engrafment%: ** 3.01X DOUBTS OF THE COPYIST ABOUT THIS PICTURE: Panel E: 5.93X and 3.01X are printed on brackets running from #40 and from XIE18-6 to DMSO. No measure is printed beside them, so the axis label 'Engrafment%' was used as the measure.
The increased frequency and total number of functional LT-HSCs after treatment with p18SMI compounds was further confirmed by competitive bone marrow transplantation (cBMT) assay (Fig. 3D). CD34^-LKS cells were first sorted and cultured w/o p18SMI compound for 3 days. Then the cultured cells were gathered and co-transplanted into lethally irradiated mice with competitor cells. […] Moreover, the engraftment of the group treated with compound 40 was double of that of the group treated with XIE18–6.

Another data set relates to KG-1a. As to the kind of experiment: MTT proliferation assay on leukemia cell line. It is filed as cell-based. From the text:
(§1) With confirmation of compound 40 promoting the expansion of HSCs, we further examined whether it might also increase the risk of malignant diseases. In order to determine the effect of compound 40 on hematological tumorigenesis, proliferation of both leukemia cell lines (KG-1 and KG-1a) and myeloma cell lines (MM.1S and RPMI 8226) was further investigated by a standard MTT assay.
(§2) To evaluate the toxicity of our top compounds, we performed a cell proliferation assay using 32D cells as well as leukemia cell lines and myeloma cell lines. Weihi-3 cells were cultured at 37 °C under 5% CO2 in RPMI 1640 medium supplemented with 10%FBS. After 48 h, the supernatant was collected and filtered. 32D cells were cultured in RPMI 1640 with 10% FBS and 10% supernatant collected from Weihi-3 cells. 8,000 32D cells or leukemia cell line (KG-1 or KG-1a) or myeloma cell line (MM.1S or RPMI 8226) were plated in a 96-well plate in 198 μL culture media per well, and then cultured (37 °C, 5% CO2) overnight. 2 μL of serially diluted compounds dissolved in saline or DMSO were added to each well and incubated (37 °C, 5% CO2) for 72 h. The concentration of DMSO was equal to the one in corresponding compound group. 20 μL of MTT solution was added to each well and then incubated (37 °C, 5% CO2) for 4 h. The percentage of cell survival was determined using the MTT assay, as previously described. The data was analyzed using GraphPad Prism v6.0.

The test system of a further data set is KG-1. Nature of the data set: MTT proliferation assay on leukemia cell line. It is filed as cell-based.
Excerpt: as §1, §2

As for `O=C([O-])c1ccc(S(=O)(=O)NC2CCCCC2)cc1.[Na+]` [Compound 40, sodium 4-(N-cyclohexylsulfamoyl)benzoate], in the data set on HSCs (CD34−LKS cells), the “increase of nmEM colonies as compared to the control group” value worked out at 3.16 fold. The “engraftment relative to the group treated with XIE18–6” value in data set [1] (16 weeks after transplantation) is “double”. In addition, the “multi-lineage differentiation profile (GM, T, B) compared with the control group” value in data set [1] (16 weeks after transplantation) is given as “did not cause predominant growth of any specific lineages”. The “increase in engraftment compared with the DMSO control group” value in data set [1] (CD34-LKS cells cultured 3 days with 20 μM compound, co-transplanted with competitor cells into lethally irradiated mice, bone marrow 16 weeks after transplantation) is listed as 5.93 fold. For the same molecule, in data set [1] (cells cultured 3 days with 20 μM compound, 16 weeks after transplantation), the “increase in engraftment compared with the uncultured group” value came to 4.34 fold. The “enhancement of proliferation (MTT)” value with KG-1a (any concentration) and in the data set with KG-1 (any concentration) was “did not enhance; also recorded: no activity” throughout. Besides, the “effect on leukemia cell line” value in the data set with KG-1a (high concentration (20 μM)) and in the data set on KG-1 (high concentration (20 μM)) was “no effect” throughout.
